Patent US12169166B2, “Fluorogenic cyanine compounds for detecting nucleic acids” (AAT Bioquest, Inc., priority 2021, dated 2024)
“Also recorded” adds a separate entry of the source. Blank lines part the entries; values can stand above or below the compound they belong to.

Tests used:
Calf thymus DNA [1] = experiment: DNA responses in solution (fluorescence vs DNA concentration); format: binding; details: Tris Buffer pH=8.0, serial DNA dilutions, microtiter plate reader (FIG. 3)
Protocol: The fluorescence intensities of Compound 5 are measured in the presence of serial dilutions of a DNA sample (0, 3.12, 6.25, 12.5, 25, 50, 100, 1000 ng/ml).
The fluorescence of a cyanine compound in 100 μL of Tris Buffer (pH=8.0) are measured in the presence of 0, 0.21, 0.62, 1.85, 5.6, 16.7, and 50 μg/ml final concentrations of Calf thymus DNA with a microtiter plate reader. The fluorescence is plotted against DNA concentration.

HeLa cells [2] = experiment: Cellular cytotoxicity (cell viability, WST kit); format: cell-based; details: 0-100 ug/mL dye, 24 hours (FIG. 7)
Protocol: HeLa cells are plated in a 96-well plate (100 μL volume). Next day, to each 100 ul of cells is added 100 ul cyanine solution to make a series of cell samples with the final cyanine dye concentrations of 0, 0.31, 0.62, 1.6, 3.12, 6.25, 12.5, 25, 50, 100 ug/mL respectively. The cell viabilities are measured and plotted for each sample.
HeLa cells are plated in a 96-well plate (100 μL volume). Next day, to each 100 ul of cells is added 100 ul cyanine solution to make a serial cell samples with the final cyanine dye concentrations of 0, 0.31, 0.62, 1.6, 3.12, 6.25, 12.5, 25, 50, 100 ug/mL respectively (total volume is 200 μL for each sample), The cells are incubated in the cyanine-containing media for 24 hours. The cell viabilities are measured with Cell Meter™ Colorimetric WST-5′ Cell Quantification Kit (AAT Bioquest) according to the product instruction.

HeLa cells [3] = experiment: Cellular nucleic acid staining of live and fixed cells; format: cell-based; details: dye 1 μg/ml in PBS, live or fixed HeLa cells, 30 min, fluorescence microscope (FIG. 6)
Protocol: A cyanine dye (1 μg/ml) in PBS buffer is incubated with live or fixed HeLa cells in 96-well plate for 30 min respectively. The fluorescence image of cells is taken with a fluorescence microscope.
A cyanine dye (1 μg/ml) in PBS buffer (prepared from 1 mM DMSO stock solution) is incubated with live and fixed HeLa cells in 96-well plate for 30 min respectively.

Calf thymus DNA [4] = experiment: Fluorescence emission spectra in the presence or absence of DNA; format: binding; details: dye 5 ug/ml, DNA 3 ug/ml, Tris Buffer pH=8.0 (FIG. 2)
Protocol: Absorption and fluorescence spectra of cyanine compounds are measured in the presence or absence of DNA in Tris buffer (pH=8.0). […]

[5] = test system: pGL3 Control vector (Promega) DNA; experiment: Pre-cast DNA gel staining; format: binding; details: 0.9% agarose, dye 1 μg/ml; for amount of DNA clearly detected per lane, pre-cast gel staining: 300 nm UV transilluminator (FIG. 4); for sensitivity for detecting DNA on gel compared with TO, pre-cast gel staining: same conditions as TO
Protocol: (§1) FIGS. 4A-4B show a representation of pre-cast DNA gel staining with Compound 5 versus Thiazole Orange. Serial dilutions of a DNA sample (86, 43, 21.5, 10.7, 5.3, 2.6, 1.3, 0.5 ng/lane) are detected with Thiazole Orange or Compound 5. Compound 5 can clearly detect 5.3 ng DNA while TO can only detect 43 ng.
An agarose gel solution (0.9% agarose) is prepared following a standard protocol (J. Roskams et al., Lab Ref A Handbook of Recipes, Reagents, and Other Reference Tools for Use at the Bench, Cold Spring Harbor Laboratory Press, Cold Spring Harbor, N.Y., 2002). A stock solution of a cyanine dye in DMSO is prepared. An aliquot of the stock solution of dye is added to the gel solution, while it is hot, resulting in an effective working concentration of the dye (1 μg/ml). The resulting solution is thoroughly mixed by swirling. The resulting gel solution is poured onto a gel slab to cast the gel. Serial two-fold dilutions of pGL3 Control vector (Promega) are made and the resulting DNA samples are loaded onto the gel in eight lanes from left to right with a loading of 86, 43, 21.5, 10.7, 5.3, 2.6, 1.3, 0.5 ng/lane, respectively. The DNA samples are electrophoretically separated in 1×TAE buffer using a standard protocol. The resulting gel is then viewed using a UV transilluminator with 300 nm excitation. Photographs of the illuminated gels are taken with an EB filter.

S. typhimurium = experiment: Mutagenicity test with S9 liver extract, colony count; format: cell-based; details: 0.2, 1 and 5 ug/plate, 48 hours at 37° C. (FIG. 8)
Protocol: Mutagenicity tests are performed as described in Example 23.
Tubes of top agar are liquified and cooled to 55-60° C. 0.3 mL of histidine/biotin stock (Presque Isle Cultures) is added alongside 20 uL of S9 liver extract. (Sigma). To the top agar tubes 0.1 mL of S. typhimurium (Grown overnight at 37° C. in TSB culture) is added with 1 mL serological pipette. The mixture is thoroughly mixed by vortexing at low speed. The culture mixture is poured into the plates of the glucose-minimal salts agar plates. With the sterile loops, a disk on its edge is placed near the center of the plate. A serial concentrations of cyanine compounds (0.2, 1 and 5 ug/plate) are added to saturate the disk with a sterile Pasteur pipette. Sterile water is used with the same volume as a negative control. The plates are incubated for 48 hours at 37° C., and the colonies are counted near the disk.

[6] = test system: pGL3 Control vector (Promega) DNA; experiment: Post-DNA gel staining; format: binding; details: 0.9% agarose, dye 1 ug/ml, same conditions as TO
Protocol: as §1, with “FIGS. 5A-5B” for “FIGS. 4A-4B”, “of post-DNA” for “of pre-cast DNA”, “detect 1.3” for “detect 5.3”, “detect 21.5” for “detect 43”
Agarose gels (0.9% agarose) are prepared following a standard protocol (J. Roskams et al., Lab Ref A Handbook of Recipes, Reagents, and Other Reverence Tools for Use at the Bench, Cold Spring Harbor Laboratory Press, Cold Spring Harbor, N.Y., 2002). Serial two-fold dilutions of pGL3 Control vector (Promega) are made and the resulting DNA samples are loaded onto an agarose gel in eight lanes from left to right with a loading of 86, 43, 21.5, 10.7, 5.3, 2.6, 1.3, 0.5 ng/lane, respectively. The DNA samples are electrophoretically separated in 1×TAE buffer using a standard protocol. A stock solution of a cyanine dye in DMSO at about 12 mM concentration is prepared. The stock solution of dye is diluted using an appropriate aqueous solvent to provide a staining solution with an appropriate effective working concentration of the dye (1 ug/ml). The agarose gel is submerged in the staining solution for approximately 30 minutes to stain the gel. The resulting gel is then viewed using a UV transilluminator with 300 nm excitation. […]

Compound: NCCCCN1C(c2ccccc2)=C/C(=C\c2sc3ccccc3[n+]2CCCCN)c2ccccc21 [Compound 5]
- fluorescence signal in response to increasing DNA concentrations, compared with TO (Calf thymus DNA [1]): significantly higher fluorescence signals than Thiazole orange (TO); also recorded: stronger fluorescence signals than TO
- cell toxicity compared with SYBR Green (HeLa cells [2]): significantly lower cell toxicity than SYBR Green; also recorded: much lower cell toxicity than SYBR Green
- live cell permeability (HeLa cells [3]): live cell impermeant
- fluorescence enhancement in the presence vs absence of DNA, compared with TO (Calf thymus DNA [4]): stronger fluorescence enhancements than TO
- amount of DNA clearly detected per lane, pre-cast gel staining [5]: 5.3 ng
- mutagenicity compared with SYBR Green (S. typhimurium): significantly lower mutagenicity than SYBR Green; also recorded: much low mutagenicity than SYBR Green

Compound: CC(=O)NCCCCN1C(c2ccccc2)=C/C(=C\c2sc3ccccc3[n+]2CCCCNC(C)=O)c2ccccc21 [Compound 6]
- fluorescence signal in response to increasing DNA concentrations, compared with TO (Calf thymus DNA [1]): stronger fluorescence signals than TO
- cell toxicity compared with SYBR Green (HeLa cells [2]): lower cell toxicity compared to SYBR Green; also recorded: much lower cell toxicity than SYBR Green
- live cell permeability (HeLa cells [3]): cell impermeability
- fluorescence enhancement in the presence vs absence of DNA, compared with TO (Calf thymus DNA [4]): stronger fluorescence enhancements than TO
- sensitivity for detecting DNA on gel compared with TO, pre-cast gel staining [5]: significantly higher sensitivity for detecting DNA on a gel than TO; also recorded: much higher sensitivity for detecting DNA on gel than TO
- sensitivity for detecting DNA on gel compared with TO, post-gel staining [6]: significantly higher sensitivity for detecting DNA on gel than TO; also recorded: much higher sensitivity for detecting DNA on gel than TO
- mutagenicity compared with SYBR Green (S. typhimurium): significantly lower mutagenicity than SYBR Green; also recorded: much lower mutagenicity than SYBR Green

- live cell permeability (HeLa cells [3]): can readily penetrate the cells
Compound: CN1/C(=C/c2cc[n+](C)c3ccccc23)Sc2ccccc21 [TO, Thiazole Orange, reference compound]
- amount of DNA clearly detected per lane, pre-cast gel staining [5]: 43 ng

Compound: OCCCCN1C(c2ccccc2)=C/C(=C\c2sc3ccccc3[n+]2CCCCO)c2ccccc21 [Compound 4]
- fluorescence signal in response to increasing DNA concentrations, compared with TO (Calf thymus DNA [1]): stronger fluorescence signals than TO; also recorded: linearly responded to the DNA concentrations with better sensitivity than TO
- cell toxicity compared with SYBR Green (HeLa cells [2]): lower cell toxicity compared to SYBR Green; also recorded: much lower cell toxicity than SYBR Green
- live cell permeability (HeLa cells [3]): cell impermeability
- fluorescence enhancement in the presence vs absence of DNA, compared with TO (Calf thymus DNA [4]): stronger fluorescence enhancements than TO
- sensitivity for detecting DNA on gel compared with TO, pre-cast gel staining [5]: significantly higher sensitivity for detecting DNA on a gel than TO; also recorded: much higher sensitivity for detecting DNA on gel than TO
- sensitivity for detecting DNA on gel compared with TO, post-gel staining [6]: significantly higher sensitivity for detecting DNA on gel than TO; also recorded: much higher sensitivity for detecting DNA on gel than TO
- mutagenicity compared with SYBR Green (S. typhimurium): significantly lower mutagenicity than SYBR Green; also recorded: much lower mutagenicity than SYBR Green
